# Source: US20250275975A1, “Methods of Treating Neuropathies” (Athira Pharma, Inc., priority 2023, published 2025)
# Legend:
# STZ DNP rats [1] = assay: Mechanical allodynia rescue assay (Von Frey paw withdrawal threshold), Example B1; format: in vivo, Sprague Dawley rats; parameters: key to Efficacy: rescue of mechanical allodynia behavior as measured by paw withdrawal threshold: NS indicates treatment did not significantly affect paw withdrawal threshold vs disease control.; + indicates p < 0.05 vs disease control.; ++ indicates p < 0.01 vs disease control.; +++ indicates p < 0.001 vs disease control; settings: for Efficacy: rescue of mechanical allodynia behavior as measured by paw withdrawal threshold: study day 28 after 14 days of treatment, p vs disease control
# Text: Hyperglycemic rats consistently develop neuropathic pain-associated behaviors including mechanical allodynia. Allodynia refers to a type of neuropathic pain characterized by increased sensitivity to stimuli that are not normally painful. Mechanical allodynia is quantified in rats by determination of the force required to induce a withdrawal of the paw and is negatively associated with allodynia such that, the lower the force required to induce paw withdrawal, the greater the pain behavior.
# (§1) A series of studies were performed to determine the ability of HGF/MET positive modulator compounds to reduce the mechanical allodynia pain behaviors in hyperglycemic rats. A single dose of STZ (55 mg/kg via intravenous (IV)) was administered to induce a Type I diabetic hyperglycemia in male Sprague Dawley rats. Hyperglycemia was confirmed 4 days after STZ administration, with blood glucose levels above 200 mg/dL considered successful model induction. 14 days after disease induction, test compound treatment was initiated and continued as daily compound administration over the remaining course of the study. Route and dose for each compound were determined by pharmacokinetic and distribution modelling. Control groups included animals with no diabetic induction (Sham control), animals with diabetes but treated only with formulation vehicle (DNP (diabetic peripheral neuropathy) control), and disease animals treated with pregabalin (30 mg/kg via PO), which is known to reduce neuropathic pain behaviors.
# (§2) Changes to neuropathic pain behaviors were assessed after 14 days of compound treatment on study day 28. Mechanical allodynia was tested by placing each animal on an elevated wire grid and stimulating the plantar surface of the right rear paw with a series of filaments corresponding to increasing orders of force, reaching a maximum force of 60 grams (Aesthesio manual Von Frey filaments). The force of the filament that causes paw withdrawal was considered the paw withdrawal threshold in grams. Pain sensitivity in response to thermal hyperalgesia was determined by using hot plate method and represented as paw withdrawal latency (PWL). Rats were placed on the hot plate (52.5° C.), and the time taken to show the nocifensive behavior (either licking or jumping) of any of their paws was recorded. Statistical comparison of treatment groups to DNP control groups was performed by one-way ANOVA followed by Dunnett's multiple comparisons test.
# STZ DNP rats [2] = assay: Thermal hyperalgesia rescue assay (hot plate paw withdrawal latency), Example B1; format: in vivo, Sprague Dawley rats; parameters: key to Efficacy: rescue of thermal hyperalgesia behavior as measured by paw withdrawal latency: NS indicates treatment did not significantly affect paw withdrawal latency vs disease control.; + indicates p < 0.05 vs disease control.; ++ indicates p < 0.01 vs disease control.; +++ indicates p < 0.001 vs disease control; settings: for Efficacy: rescue of thermal hyperalgesia behavior as measured by paw withdrawal latency: study day 28 after 14 days of treatment, hot plate 52.5° C., p vs disease control
# Protocol: as §1, §2
# [3] = test system: neuron-Schwann cell co-cultures; assay: Sensory neurite extension and myelination in healthy primary dorsal root ganglia cultures; format: cell-based, rat; parameters: key to Significant promotion of Neurite Network Extension of Sensory Neurons / Significant promotion of Myelination of Sensory neurons by Schwann Cells: “NS” indicates the treatment did not have a significant effect; “+” indicates the treatment had a significant effect; settings: for Significant promotion of Myelination of Sensory neurons by Schwann Cells / Significant promotion of Neurite Network Extension of Sensory Neurons: Healthy cultures, vs vehicle
# Protocol: (§3) To assess the effects of test compound treatment on these structures central to neuropathic pathology, peripheral sensory neurons were modeled using dissociated primary cultures of neurons and Schwann cells collected from fetal rats. Fetal rats were collected from pregnant females after 15 days of gestation, and the dorsal root ganglion was dissociated via trypsin digestion and mechanical disruption. The resulting cells were plated and allowed to grow for 7 days. On day 7 in culture, ascorbic acid at a concentration of 50 μM was added to the culture to promote myelination of sensory neurons by Schwann cells.
# To model the effects of Compound 5a in the normal peripheral nervous system, neuron-Schwann cell co-cultures were treated with Compound 5a in combination with low doses of recombinant hepatocyte growth factor (HGF). On day 8 in culture, experimental treatments were added to culture media. These treatments included HGF with or without Compound 5a. Some cultures were treated with the steroid hormone B-estradiol to serve as a positive control. Treatments were applied every other day, and on day 21 in culture the cultures were fixed with ethanol and processed for immunodetection of both microtubule-associate protein 2 (MAP2) to reveal neurons and their neurites as well as myelin-associated glycoprotein (MAG) to reveal Schwann cells and the extent of their myelination of cultured neurites. Cells were counterstained with Hoechst DNA dye to identify individual cells.
# (§4) 30 fluorescent images were captured for each treatment group and images were quantified by automated image analysis. Neurite network extension was quantified as the total length of MAP2-positive neurites per cell measured in μm. Myelination by Schwann cells was quantified by the area of overlap between MAP2-positive neurites and MAG-positive myelin wrapping measured in μm^2. Statistical analysis was performed as a one-way ANOVA with Fisher's LSD post-test against either vehicle- or Cisplatin-treated groups respectively.
# [4] = test system: neuron-Schwann cell co-cultures injured with cisplatin; assay: Sensory neurite extension and myelination in cisplatin-injured primary dorsal root ganglia cultures; format: cell-based, rat; parameters: key to Significant promotion of Neurite Network Extension of Sensory Neurons / Significant promotion of Myelination of Sensory neurons by Schwann Cells: “NS” indicates the treatment did not have a significant effect; “+” indicates the treatment had a significant effect; settings: for Significant promotion of Myelination of Sensory neurons by Schwann Cells / Significant promotion of Neurite Network Extension of Sensory Neurons: +Cisplatin injury (10 μg/ml, 24 hours), vs Cisplatin-treated group
# Protocol: as §3
# To model the effects of neuropathic injury in sensory neurons and associated Schwann cells, cultures were injured with the chemotherapy drug cisplatin. These cultures were prepared identically to those described above. In this system, Compound 5a, HGF, and β-estradiol treatments began on culture day 19. Also on culture day 19, cisplatin (10 μg/ml) was added to the cultures for 24 hours. On culture day 20, cisplatin was removed from the media while test compound treatments were replaced for 24 hours. On day 21 in culture, cells were fixed and processed for immunodetection as described above.
# as §4
# [5] = Compound 5a 0.1 μM with HGF 0.05 ng/ml
# [6] = Compound 5a 0.5 μM with HGF 0.05 ng/ml
# [7] = Compound 5a 1 μM with HGF 0.05 ng/ml
# [8] = healthy cultures, 0.5 μM Compound 5a with HGF (0.05 ng/ml)
# [9] = injured cultures, Compound 5a at 0.1, 0.5, and 1 μM with HGF (0.05 ng/ml)
smiles,measurement,setting,value
CCC(C)CN1CC2N(Cc3ccc(C(F)(F)F)cc3)CCC(=O)N2[C@@H](C)C1=O (stereo partly shown) [Compound 5a],Efficacy: rescue of mechanical allodynia behavior as measured by paw withdrawal threshold,STZ DNP rats [1]; 0.003 mg/kg IV daily,NS
same,Efficacy: rescue of mechanical allodynia behavior as measured by paw withdrawal threshold,STZ DNP rats [1]; 0.015 mg/kg IV daily,NS
same,Efficacy: rescue of mechanical allodynia behavior as measured by paw withdrawal threshold,STZ DNP rats [1]; 0.075 mg/kg IV daily,NS
same,Efficacy: rescue of mechanical allodynia behavior as measured by paw withdrawal threshold,STZ DNP rats [1]; 0.375 mg/kg IV daily,++ (++ indicates p < 0.01 vs disease control.)
same,Efficacy: rescue of mechanical allodynia behavior as measured by paw withdrawal threshold,STZ DNP rats [1]; 1 mg/kg PO daily,++ (++ indicates p < 0.01 vs disease control.)
same,Efficacy: rescue of mechanical allodynia behavior as measured by paw withdrawal threshold,STZ DNP rats [1]; 2 mg/kg PO daily,+++ (+++ indicates p < 0.001 vs disease control.)
same,Efficacy: rescue of mechanical allodynia behavior as measured by paw withdrawal threshold,STZ DNP rats [1]; 10 mg/kg PO daily,+++ (+++ indicates p < 0.001 vs disease control.)
same,Efficacy: rescue of mechanical allodynia behavior as measured by paw withdrawal threshold,STZ DNP rats [1]; 20 mg/kg PO daily,+++ (+++ indicates p < 0.001 vs disease control.)
same,rescue of the mechanical allodynia behavior as measured by paw withdrawal threshold,STZ DNP rats [1]; STZ DNP rats,significant rescue
same,Efficacy: rescue of thermal hyperalgesia behavior as measured by paw withdrawal latency,STZ DNP rats [2]; 0.003 mg/kg IV daily,+ (+ indicates p < 0.05 vs disease control.)
same,Efficacy: rescue of thermal hyperalgesia behavior as measured by paw withdrawal latency,STZ DNP rats [2]; 0.015 mg/kg IV daily,NS
same,Efficacy: rescue of thermal hyperalgesia behavior as measured by paw withdrawal latency,STZ DNP rats [2]; 0.075 mg/kg IV daily,+ (+ indicates p < 0.05 vs disease control.)
same,Efficacy: rescue of thermal hyperalgesia behavior as measured by paw withdrawal latency,STZ DNP rats [2]; 0.375 mg/kg IV daily,++ (++ indicates p < 0.01 vs disease control.)
same,Efficacy: rescue of thermal hyperalgesia behavior as measured by paw withdrawal latency,STZ DNP rats [2]; 1 mg/kg PO daily,NS
same,Efficacy: rescue of thermal hyperalgesia behavior as measured by paw withdrawal latency,STZ DNP rats [2]; 2 mg/kg PO daily,+ (+ indicates p < 0.05 vs disease control.)
same,Efficacy: rescue of thermal hyperalgesia behavior as measured by paw withdrawal latency,STZ DNP rats [2]; 10 mg/kg PO daily,+++ (+++ indicates p < 0.001 vs disease control.)
same,Efficacy: rescue of thermal hyperalgesia behavior as measured by paw withdrawal latency,STZ DNP rats [2]; 20 mg/kg PO daily,+++ (+++ indicates p < 0.001 vs disease control.)
same,rescue of thermal allodynia behavior as measured by paw withdrawal latency,STZ DNP rats [2]; STZ DNP rats,significant rescue
same,Significant promotion of Myelination of Sensory neurons by Schwann Cells,[3]; [5],+
same,Significant promotion of Neurite Network Extension of Sensory Neurons,[3]; [5],NS
same,Significant promotion of Myelination of Sensory neurons by Schwann Cells,[3]; [6],+
same,Significant promotion of Neurite Network Extension of Sensory Neurons,[3]; [6],+
same,Significant promotion of Myelination of Sensory neurons by Schwann Cells,[3]; [7],NS
same,Significant promotion of Neurite Network Extension of Sensory Neurons,[3]; [7],NS
same,myelination,[3]; [8],significant promotion
same,neurite network extension,[3]; [8],significant promotion
same,Significant promotion of Myelination of Sensory neurons by Schwann Cells,[4]; [5],+
same,Significant promotion of Neurite Network Extension of Sensory Neurons,[4]; [5],+
same,Significant promotion of Myelination of Sensory neurons by Schwann Cells,[4]; [6],+
same,Significant promotion of Neurite Network Extension of Sensory Neurons,[4]; [6],+
same,Significant promotion of Myelination of Sensory neurons by Schwann Cells,[4]; [7],+
same,Significant promotion of Neurite Network Extension of Sensory Neurons,[4]; [7],+
same,myelination,[4]; [9],significantly promoted
same,neurite network extension,[4]; [9],significantly promoted
